Holding throughout (assay type): cell-based, Bos Taurus
What all share (details): 1.5 μM, 3 days

The subject of one test is ADAMTS-5 mRNA. Put plainly: ADAMTS-5 mRNA expression in bovine primary chondrocytes in alginate beads (real-time PCR, relative to GAPDH). For orientation: In qPCR the cycle at which signal appears reflects the starting amount.
A further test has as its system COX-2 mRNA. Nature of the test: COX-2 mRNA expression in bovine primary chondrocytes in alginate beads (real-time PCR, relative to GAPDH). The procedure:
The foot of a young cow was washed to remove soil. The skin was removed from the foot. The articulation was opened transversally. Intra articular ligaments were transected. The opened articulation was washed with phosphate buffered saline. With a scalpel blade, full thickness slices of cartilage were dissected out and collected in DMEM high glucose with 10 mM hepes and 1% Penicillin-Streptomycin. Slices of cartilage were washed in DMEM high glucose with 10 mM hepes and 1% Penicillin-Streptomycin.
Cartilage was then digested successively by 0.5 mg/ml of hyluronidase during 30 minutes, 1.0 mg/ml of pronase E during 60 minutes and 1.0 mg/ml of collagenase overnight under slow agitation. […]
Total RNA was isolated from pool of 40 beads and isolated using RNeasy kit from Qiagen. cDNA was obtained by reverse transcription of RNA with the Primescript 1st strand cDNA Synthesis kit from Takara. mRNA expression of ADAMTS-5, COX-2, MMP-13 and GAPDH were quantified in real-time PCR (SYBR Green)
FIGS. 1 to 3 show mRNA expression of ADAMTS-5, COX-2 and MMP-13 normalized by GAPDH mRNA expression after 3 days of culture. Data were expressed as fold change in gene expression compared to negative control (cells cultured in complete medium). Results were calculated according to the 2^−ΔΔCT method.
IL1a interleukin-1 alpha 10 ng/ml Data were expressed as median±S.E. Median (2 experiments of 3 replicates each). […]

Another test relates to MMP-13 mRNA. Put plainly: MMP-13 mRNA expression in bovine primary chondrocytes in alginate beads (real-time PCR, relative to GAPDH).
[1] abbreviates: absence of IL1a (normal conditions).
Where [2] appears, read: presence of IL1a 10 ng/ml (disease conditions).

This is an account of results in patent US20160101125A1, “COMPOSITIONS FOR USE IN CARTILAGE BREAKDOWN” (NESTEC S.A., priority 2013, published 2016).

`O=c1c(O)c(-c2ccc(O)c(O)c2)oc2cc(O)cc(O)c12` [QRC, quercetin]: the “ADAMTS-5 mRNA expression relative to GAPDH” value with ADAMTS-5 mRNA (setting [1]) and with ADAMTS-5 mRNA (setting [2]) was “decrease” throughout. Also, the “COX-2 mRNA expression relative to GAPDH” value is reported as “reduce” in the test with COX-2 mRNA (setting [1]) and “decrease” with COX-2 mRNA (setting [2]). Besides, the “MMP-13 mRNA expression relative to GAPDH” value in the test with MMP-13 mRNA (setting [1]) and with MMP-13 mRNA (setting [2]) was “decrease” in each case.
